Measurements reported in patent US7090780B2, “Bactericide for use in water treatment, method for water treatment and apparatus for water treatment” (Toray Industries, Inc., priority 2001, dated 2006).

Conditions: 50 ppm of sulfuric acid added to pressure-sterilized physiological salt solution (salt concentration 0.9 wt %)

SMILES: O=S(=O)(O)O [sulfuric acid]
- pH of the liquid: 3.2
